Patent US20100029613A1, “TREATMENT AND PREVENTION OF EPILEPSY” (University of Rochester, priority 2004, published 2010)
Values joined by “and” are separate entries in the source; they are usually repeats but may differ in a detail not shown here. Equal values may be shown once. Read-outs that look alike come from different tables or passages of the source.

Legend:
cultured astrocytes [1] = experiment: Astrocyte cell volume, confocal x-z line scans of calcein-loaded cultures; assay type: cell-based, rat
[2] = test system: cultured rat cortical astrocytes; experiment: ATP-induced glutamate release, enzymatic fluorescence assay; assay type: cell-based; settings: for glutamate release triggered by ATP agonists: 100 μM
[3] = test system: astrocytic Ca^2+ signaling in hippocampal slices; assay type: cell-based, rat
cultured astrocytes [4] = experiment: Ca^2+ imaging in cultured astrocytes; assay type: cell-based, rat; settings: absence of co-cultured neurons
hippocampus of adult rat = settings: in vivo
[5] = test system: PDSs in hippocampal slices evoked by 4-AP; experiment: 4-AP-evoked PDSs, field potential recording in hippocampal slices; assay type: cell-based, rat; settings: for frequency and amplitude of PDSs: bath applied to slices with 4-AP induced seizures, NPPB 100 μM, FFA 100 μM
[6] = test system: glutamate-permeable channel in cultured astrocytes; experiment: Whole-cell recording of ATP-induced current in cultured astrocytes; assay type: cell-based, rat; settings: for effect on ATP-induced current: NaCl outside, BAPTA 10 mM in pipette, NPPB 100 μM, FFA 100 μM, gossypol 10 μM, OxATP 300 μM 1 h
[7] = test system: cultured astrocytes from Cx43 KO mice; assay type: cell-based
astrocytes in suspension = assay type: cell-based, rat
cultured astrocytes [8] = assay type: cell-based, rat
[9] = test system: astrocytes in hippocampal slices; assay type: cell-based, rat
cultured astrocytes [10] = experiment: HPLC analysis of amino acid release from perfused astrocyte cultures; assay type: cell-based, rat
[11] = test system: glutamate-permeable channel in astrocytes in hippocampal slices; experiment: Whole-cell recording of ATP-induced inward current in astrocytes in hippocampal slices; assay type: cell-based, rat; settings: for effect on ATP-induced inward current: 10 mM intracellular BAPTA, 100 μM NPPB in bath
[12] = test system: cultured rat cortical astrocytes; experiment: Hypotonicity (swelling)-induced glutamate release, enzymatic fluorescence assay; assay type: cell-based
[13] = test system: PDSs in hippocampal slices; experiment: PDSs across all experimental seizure models (4-AP, Mg^2+-free, bicuculline, penicillin, Ca^2+-free); assay type: cell-based, rat
[14] = test system: interneurons in hippocampal slices; assay type: cell-based, rat
[15] = test system: 4-AP induced astrocytic Ca^2+ signaling in cortex; experiment: In vivo two-photon imaging of 4-AP induced astrocytic Ca^2+ signaling; set-up: species or system mice
[16] = test system: ATP-induced Ca^2+ waves in cortical astrocytes; experiment: In vivo two-photon imaging of ATP-induced astrocytic Ca^2+ waves; set-up: species or system mice
[17] = 214 mOsM, same concentrations as for ATP-induced release
[18] = NPPB 100 μM, FFA 100 μM, gossypol 10 μM
[19] = valproate 450 mg/kg, gabapentin 200 mg/kg, phenyloin 100 mg/kg i.p., 5-30 min after 4-AP
[20] = valproate 450 mg/kg, gabapentin 200 mg/kg, phenyloin 100 mg/kg i.p., iontophoretic ATP, non-epileptic mice

In the case of 2′,3′-O-(4-benzoylbenzoyl)-ATP [Bz-ATP], the “increase in vertical sectional areas (cell swelling)” value (“increase … (cell swelling)” below) (cultured astrocytes [1]; 100 μM agonist, 1 min) is reported as 1.35±1.05% and the “glutamate release triggered by ATP agonists” value (from here on “glutamate release triggered”) [2] is reported as “without effect”.
`Nc1ccncc1` [4-AP, 4-aminopyridine] was tested, and the “astrocytic Ca^2+ signaling (Ca^2+ oscillations)” value [3] was “potently initiated astrocytic Ca^2+ signaling”, the “Ca^2+ signaling in cultured astrocytes” value (cultured astrocytes [4]) was “promptly induced Ca^2+ signaling” and the “extracellular concentration of glutamate” value (hippocampus of adult rat) was 6 to 10 µM. The “increase in release of amino acid osmolytes (glutamate, aspartate, glutamine, taurine)” value (hippocampus of adult rat) was 3-8 fold.
For `C[C@@](N)(C(=O)O)c1ccc(C(=O)O)cc1` [(S)-MCPG, (S)-Alpha-methyl-4-carboxy-phenylglycine], the “frequency and amplitude of PDSs compared with TTX alone” value [5] was “failed to reduce”.
`NC(CCCP(=O)(O)O)C(=O)O` (stereo not shown) [APV, 2-amino-5-phosphonovalerate] was tested, and the “frequency and amplitude of PDSs compared with TTX alone” value [5] was “highly significant reduction”.
For `Nc1ncnc2c1ncn2[C@@H]1O[C@H](COP(=O)(O)OP(=O)(O)OP(=O)(O)O)[C@@H](O)[C@H]1O` [ATP], the “ATP-triggered inward current, amplitude” value [6] was 250±33 pA, the “ATP-triggered inward current, average amplitude” value [6] was 177±37 pA and 138±36 pA and the glutamate release [7] was 3.02 fmol per cell. For the same compound, the “glutamate release relative to astrocytes from wild-type littermates” value [7] was 90.7%, the “increase in astrocytic cell volume” value (astrocytes in suspension) was 3.5±0.6% and 3.0±0.5% and the “decrease in fluorescence-dilution emission” value (cultured astrocytes [8]) was 9.6±1.3%. For the same compound, the “increase … (cell swelling)” value (cultured astrocytes [1]) was 5.19±0.66%, the volume increase (cultured astrocytes [1]) was 5.2% and the glutamate release [2] was 2.49±0.21 fmol glutamate per cell. For the same compound, the “duration of the fluo-4 signal increase” value [9] was 8.7 ± 1.4 s, the “increase in the fluo-4 signal over baseline” value [9] was 131±13% and the “increase in glutamate release” value (cultured astrocytes [10]) was 2- to 5 fold. It also gave an ATP-induced inward current [11] of 254±31 pA.
`O=C(O)CN(CC(=O)O)c1ccccc1OCCOc1ccccc1N(CC(=O)O)CC(=O)O` [BAPTA, 1,2-bis (2-aminophenoxy) Ethane-N,N,N′,N′-tetraacetic acid] was tested, and the “effect on ATP-induced current” value [6] was “blocked”, the “effect on glutamate release evoked by hypoosmotic challenge” value (“effect on glutamate release evoked” below) [12, 17] was “failed to affect” and the “effect on ATP-induced inward current” value [11] was “attenuated”.
`CC(=O)OCOC(=O)CN(CC(=O)OCOC(C)=O)c1ccccc1OCCOc1ccccc1N(CC(=O)OCOC(C)=O)CC(=O)OCOC(C)=O` [BAPTA/AM, 1,2-bis(2-aminophenoxy)ethane-N,N,N′,N′-tetraacetate (BAPTA)/AM] was tested, and the “ATP-induced increase in vertical sectional areas attenuated to” value (cultured astrocytes [1]; ATP 100 μM, BAPTA/AM 20 μM preloaded) was 1.63±0.73%, the “effect on ATP-induced glutamate release” value [2] was “attenuated the release” and the “effect on glutamate, aspartate, glutamine and taurine release evoked by ATP” value (cultured astrocytes [10]) was “inhibited”.
With `CCOc1ccc(Nc2ccc(/C(=C3C=C/C(=[N+](/CC)Cc4cccc(S(=O)(=O)[O-])c4)C=C/3C)c3ccc(N(CC)Cc4cccc(S(=O)(=O)[O-])c4)cc3C)cc2)cc1.[Na+]` [BBG, Brilliant Blue G] the ATP-induced glutamate release ([2]; BBG 1 μM) was 106.4±19.1 % of control and the “amplitude of the ATP-induced inward current” value ([11]; BBG 1 μM, P=0.8) was 106.8±22.0%.
`N#Cc1cc2c(cc1[N+](=O)[O-])=NC(=O)C(=O)N=2` [CNQX, 6-cyano-7-nitroquinoxaline-2,3-dione] was tested, and the “frequency and amplitude of PDSs compared with TTX alone” value [5] was “significant decrease”.
For `O=C(O)c1ccccc1Nc1cccc(C(F)(F)F)c1` [FFA, flufenamic acid], the “effect on ATP-induced current” value [6] was “inhibited ATP-induced current”, the “glutamate release in presence of anion channel blocker” value (“glutamate release in presence” below) [2, 18] was 0.00±0.00 fmol per cell and the “effect on glutamate release evoked” value [12, 17] was “decreased”. The “frequency and amplitude of PDSs” value [5] was “markedly reduced”.
With `COc1ccc2c(c1)c(CC(=O)O)c(C)n2C(=O)c1ccc(Cl)cc1` [Indomethacin] the “effect on ATP-induced glutamate release” value [2] was “did not reduce”.
`O=C(O)c1cc([N+](=O)[O-])ccc1NCCCc1ccccc1` [NPPB, 5-nitro-2-(3-phenylpropylamino) benzoic acid] was tested, and the “effect on ATP-induced current” value [6] was “inhibited ATP-induced current”, the “glutamate release in presence” value [2, 18] was 0.22±0.14 fmol per cell and the “reduction of glutamate release” value ([2]; after exposure to 10 μM ATP, NPPB 100 μM) was 72.6±3.9%. The “effect on glutamate release evoked” value [12, 17] was “decreased”, the “frequency and amplitude of PDSs” value [5] was “markedly reduced” and the “effect on glutamate, aspartate, glutamine and taurine release evoked by ATP” value (cultured astrocytes [10]) was “inhibited”. The “effect on ATP-induced inward current” value [11] was “attenuated”.
With `Nc1ncnc2c1ncn2[C@@H](C=O)O[C@@H](C=O)COP(=O)(O)OP(=O)(O)OP(=O)(O)O` [OxATP, oxidized ATP] the “effect on ATP-induced current” value [6] was “no significant effect” and the “effect on ATP-induced glutamate release” value [2] was “did not significantly reduce”.
`Nc1c(S(=O)(=O)O)cc(Nc2ccc(Nc3nc(Cl)nc(Nc4cccc(S(=O)(=O)O)c4)n3)c(S(=O)(=O)O)c2)c2c1C(=O)c1ccccc1C2=O` [Reactive Blue 2] was tested, and the “effect on ATP-induced glutamate release” value [2] was “blocked the release”.
With `N[C@H](C(=O)O)[C@H](OCc1ccccc1)C(=O)O` [TBOA, D,L-threo-beta-benzyloxyaspartate] the “effect on ATP-induced glutamate release” value [2] was “without effect”, the “effect on glutamate release evoked” value [12, 17] was “without effect” and the “frequency and amplitude of PDSs compared with TTX alone” value [5] was “increased the frequency and amplitude of PDSs significantly”.
`NC1=N[C@H](O)[C@H]2[C@H]3O[C@]4(O)O[C@@H]([C@@H](O)[C@@]2(N1)[C@@H]4O)[C@]3(O)CO` [TTX, tetrodotoxin] was tested, and the “frequency or amplitude of astrocytic Ca^2+ oscillations” value [3] was “did not reduce”, the “decrease of relative frequency of PDSs compared with 4-AP alone” value [5] was 32±8% and the “frequency and amplitude of 4-AP induced PDSs” value [5] was “only slightly decreased”. For the same compound, the “frequency and amplitude of PDSs reduced by” value [5] was 20-35% and the “frequency of PDSs reduced to” value [13] was 70-90 % of total.
In the case of `O=c1ccn([C@@H]2O[C@H](COP(=O)(O)OP(=O)(O)OP(=O)(O)O)[C@@H](O)[C@H]2O)c(=O)[nH]1` [UTP], the “increase … (cell swelling)” value (cultured astrocytes [1]) is reported as 5.75±0.57% and the “glutamate release triggered” value [2] is reported as “roughly equivalent to that of ATP”.
`CO/C1=C\C(C)=C\[C@@H](C)[C@@H](O)[C@@H](C)C/C(C)=C/C=C/[C@H](OC)[C@@H]([C@@H](C)[C@@H](O)[C@H](C)[C@@]2(O)C[C@@H](O)[C@H](C)[C@@H](C(C)C)O2)OC1=O` [bafilomycin A1] was tested, and the “effect on ATP-induced glutamate release” value [2] was “no effect”, the “effect on glutamate release evoked” value [12] was “no effect” and the “frequency of inhibitory postsynaptic currents” value [14] was 0.2 per sec.
With `NCC1(CC(=O)O)CCCCC1` [gabapentin] the “4-AP-induced Ca^2+ signaling reduced by” value ([15]; mouse, in vivo) was 55.6% and the “ATP-evoked astrocytic Ca^2+ signaling (Ca^2+ waves) depressed by” value (shortened to “ATP-evoked astrocytic Ca^2+ signaling”) ([16]; mouse, in vivo) was 53.8%.
In the case of `Cc1cc2c(C(C)C)c(O)c(O)c(C=O)c2c(O)c1-c1c(C)cc2c(C(C)C)c(O)c(O)c(C=O)c2c1O` [gossypol], the “glutamate release in presence” value [2] is reported as 0.07±0.07 fmol per cell.
For `O=C1NC(=O)C(c2ccccc2)(c2ccccc2)N1` [phenyloin], the “4-AP-induced Ca^2+ signaling reduced by” value [15, 19] was 45.5% and the “ATP-evoked astrocytic Ca^2+ signaling” value [16, 20] was 23.8%.
`C/C=C(/C)C(=O)O[C@H]1C(C)=C2[C@H]([C@@H]1OC(=O)CCCCCCC)[C@@](C)(OC(C)=O)C[C@H](OC(=O)CCC)[C@@]1(O)[C@H]2OC(=O)[C@@]1(C)O` [thapsigargin] was tested, and the “effect on ATP-induced glutamate release” value [2] was “attenuated the release” and the “effect on glutamate release evoked” value [12, 17] was “failed to affect”.
`CCCC(CCC)C(=O)O` [valproate] was tested, and the “4-AP-induced Ca^2+ signaling reduced by” value [15, 19] was 69.7% and the “ATP-evoked astrocytic Ca^2+ signaling” value [16, 20] was 64.9%.
In the case of `Nc1ncnc2c1ncn2[C@@H]1O[C@H](COP(=O)(O)CP(=O)(O)OP(=O)(O)O)[C@@H](O)[C@H]1O` [αβ-meATP], the “glutamate release triggered” value [2] is reported as “without effect”.
For methionine sulfoximine [MSO], the “effect on ATP-induced glutamate release” value [2] was “increased glutamate release” and the “effect on glutamate release evoked” value [12] was “increased glutamate release”.
